Patent US12552756B2, “Deuterated aminothiazole compounds as antiviral compounds” (priority 2020, dated 2026)
Where “and” joins values, the source holds several entries; their conditions need not be identical. Identical values can stand only once. Like-named read-outs stand apart in the source and are kept apart here.

Tests used:
HSV-1 = test: In-vitro activity, HSV-1 infected Vero; assay type: cell-based; conditions: Human alphaherpesvirus 1; Vero cells
Protocol: (§1) The in-vitro activity for (HSV-1 infected Vero), (HSV-2 infected Vero) and (HSV-1 (ACV resistant) infected vero) was tested as outlined in WO2017/174640 and WO2019/068817. For comparison, the non-deuterated matched-pair to Example 1 of the present application has been tested, which is hereinafter designated as Comparative Example C7 and which corresponds to Example 7 of WO2017/174640.

HSV-2 = test: In-vitro activity, HSV-2 infected Vero; assay type: cell-based; conditions: Human alphaherpesvirus 2; Vero cells
Protocol: as §1

HSV-1 (ACV resistant) = test: In-vitro activity, HSV-1 (ACV resistant) infected vero; assay type: cell-based; conditions: Human alphaherpesvirus 1, Vero, read-out: IC50 (HSV-1 ACV resistant)
Protocol: as §1

[1] = Microsomal stability, human liver microsomes, conversion to hydroxylated metabolite; assay type: in vitro ADME; conditions: 1st and 2nd replicate
Protocol: Example 1 and the non-deuterated matched pair (Comparative Example C7/Example 7 from WO2017/174640) were incubated using three different batches of human liver microsomes (HLM) for a period of 60 min. The conversion to the hydroxylated metabolite was monitored by LC-MS.

[2] = Pharmacokinetics in mouse; assay type: in vivo; conditions: male C57BI/6N mouse; for % AUCextra / t1/2z / tz / AUC(0-inf) / AUC(0-t) / C0 / clearance / concentration at 24 h / Vd / Cmax / Tmax: cassette; for AUC(0-inf) / AUC(0-t) / C0 / clearance / concentration at 24 h / Vd / bioavailability / Cmax / Tmax: plasma; for concentration at 24 h: read-out: Cz; for Vd: read-out: Vz; for bioavailability: po 10 mg/kg vs iv 2 mg/kg
Protocol: Plasma from the retrobulbar venous plexus was analyzed by LC-MS. The obtained data obtained is as follows (NC=not calculable): […]

[3] = Brain exposure and brain-to-plasma ratio in mouse; assay type: in vivo; conditions: C57BI/6N mouse; for behaviour and clinical signs after dosing: oral cassette dosing 10 mg/kg each; for Kp at 4 h: brain/plasma; for Kp at 4 h / concentration at 4 h: oral cassette 10 mg/kg
Protocol: The brain and plasma exposure for Example 6 as well as for Example 4/2 and for its non-deuterated matched-pair (Comparative Example C4/2/Example 7(—) from WO2017/174640) was asessed in 3 mice (strain C57BI/6N, weight 21-26 g) after oral cassette dosing with a dose of 10 mg/kg each after 4 h. The compounds were formulated in 5% DMSO and 95% aq. HPMC (0.5%). […] Plasma from the retrobulbar venous plexus was analyzed by LC-MS.

[4] = Additional microsomal stability, human microsomes, hydroxy metabolite formation; assay type: in vitro ADME; conditions: human (mixed gender) microsomes, 60 min
Protocol: The formation of the hydroxy metabolites was quantified via peak area ratio towards the corresponding non-deuterated matched pair when incubating the samples in rat microsomes (SD rat, male) or human microsomes (mixed gender) for 60 min at Admescope. The peak signal (positive mode) was quantified with a Waters Acquity UPLC+Thermo Q-Exactive Focus Orbitrap MS on a Phenomenex Kinetex Biphenyl (2.1×50 mm, 1.7 μm particle size […]) column.

[5] = brain, read-out: mean brain conc. with SD
[6] = plasma, read-out: mean plasma conc. with SD

Structure (SMILES): Cc1nc(N(C)C(=O)Cc2ccc(-c3cc(F)ccc3F)cc2)sc1S(C)(=N)=O (racemic) [Comparative Example C7, reference compound]
- IC50 (HSV-1): 25 to 100 nM
- IC50 (HSV-2): 25 to 100 nM
- IC50 (HSV-1 (ACV resistant)): 25 to 100 nM
- Parent [nM] 60 min ([1]; HLM batch 38292, 60 min, listed as Comp. Example C7): 1053 nM and 1255 nM
- Parent [nM] 60 min ([1]; HLM batch 5061002, 60 min, listed as Comp. Example C7): 1122 nM and 910 nM
- Parent [nM] 60 min ([1]; HLM batch 6029002, 60 min, listed as Comp. Example C7): 937 nM and 973 nM

Structure (SMILES): [2H]C([2H])([2H])c1nc(N(C)C(=O)Cc2ccc(-c3cc(F)ccc3F)cc2)sc1S(C)(=N)=O (racemic) [Example 1, 2-(2′,5′-Difluoro-[1,1′-biphenyl]-4-yl)-N-methyl-N-(4-(methyl-d3)-5-(S-methyl-sulfonimidoyl)thiazol-2-yl)acetamide]
- IC50 (HSV-1): 25 to 125 nM
- IC50 (HSV-2): 25 to 125 nM
- IC50 (HSV-1 (ACV resistant)): 25 to 125 nM
- Parent [nM] 60 min ([1]; HLM batch 38292, 60 min): 928 nM and 1085 nM
- Parent [nM] 60 min ([1]; HLM batch 5061002, 60 min): 1083 nM and 1058 nM
- Parent [nM] 60 min ([1]; HLM batch 6029002, 60 min): 1231 nM and 1159 nM

Structure (SMILES): [2H]C([2H])([2H])c1nc(N(C)C(=O)Cc2ccc(-c3cc(F)ccc3F)cc2)sc1[S@](C)(=N)=O (single isomer, unassigned) [Example 4/1]
- IC50 (HSV-1): 50 to 150 nM
- IC50 (HSV-2): 50 to 250 nM
- IC50 (HSV-1 (ACV resistant)): 50 to 150 nM

Structure (SMILES): [2H]C([2H])([2H])c1nc(N(C)C(=O)Cc2ccc(-c3cc(F)ccc3F)cc2)sc1[S@@](C)(=N)=O (single isomer, unassigned) [Example 4/2]
- IC50 (HSV-1): 5 to 75 nM
- IC50 (HSV-2): 10 to 90 nM
- IC50 (HSV-1 (ACV resistant)): 5 to 75 nM
- % AUCextra ([2]; iv 2 mg/kg): 24.9%
- t1/2z ([2]; iv 2 mg/kg): 11.3 h
- tz ([2]; iv 2 mg/kg): 24 h
- tz ([2]; po 10 mg/kg): 24 h
- AUC(0-inf) ([2]; iv 2 mg/kg): 10600 ng·h/mL
- AUC(0-t) ([2]; iv 2 mg/kg): 8000 ng·h/mL
- C0 ([2]; iv 2 mg/kg): 16.2 ng/mL
- clearance ([2]; iv 2 mg/kg): 3.13 mL/min/kg
- concentration at 24 h ([2]; iv 2 mg/kg): 162 ng/mL
- Vd ([2]; iv 2 mg/kg): 3.07 L/kg
- bioavailability [2]: 201%
- AUC(0-t) ([2]; po 10 mg/kg): 80200 ng·h/mL
- Cmax ([2]; po 10 mg/kg): 4610 ng/mL
- Tmax ([2]; po 10 mg/kg): 4 h
- concentration at 24 h ([2]; po 10 mg/kg): 2730 ng/mL
- improvement of plasma and brain exposure compared to the non-deuterated matched-pair ([3]; oral 10 mg/kg, after 4 h): over 50%
- behaviour and clinical signs after dosing [3]: no clinical signs observed
- Kp at 4 h [3]: 1.57
- concentration at 4 h [3, 5]: 8610 ± 2180 ng/mL
- concentration at 4 h [3, 6]: 5470 ± 1320 ng/mL

Structure (SMILES): [2H]C([2H])([2H])Oc1ccccc1-c1ccc(CC(=O)N(C)c2nc(C)c(S(N)(=O)=O)s2)cc1 [5/2]
- IC50 (HSV-1): 10 to 100 nM
- IC50 (HSV-2): 30 to 150 nM
- IC50 (HSV-1 (ACV resistant)): 10 to 100 nM

Structure (SMILES): [2H]C([2H])([2H])c1nc(N(C)C(=O)Cc2ccc(-c3cc(F)ccc3F)cc2F)sc1S(N)(=O)=O [6/2]
- IC50 (HSV-1): 2 to 60 nM
- IC50 (HSV-2): 3 to 75 nM
- IC50 (HSV-1 (ACV resistant)): 2 to 60 nM

Structure (SMILES): Cc1nc(N(C)C(=O)Cc2ccc(-c3cc(F)ccc3F)cc2)sc1[S@@](C)(=N)=O [Comparative Example C4/2, reference compound]
- % AUCextra ([2]; iv 2 mg/kg): 12.4%
- t1/2z ([2]; iv 2 mg/kg): 7.7 h
- tz ([2]; iv 2 mg/kg): 24 h
- tz ([2]; po 10 mg/kg): 24 h
- AUC(0-inf) ([2]; iv 2 mg/kg): 6390 ng·h/mL
- AUC(0-t) ([2]; iv 2 mg/kg): 5600 ng·h/mL
- C0 ([2]; iv 2 mg/kg): 10.4 ng/mL
- clearance ([2]; iv 2 mg/kg): 5.22 mL/min/kg
- concentration at 24 h ([2]; iv 2 mg/kg): 71.5 ng/mL
- Vd ([2]; iv 2 mg/kg): 3.47 L/kg
- bioavailability [2]: 167%
- AUC(0-t) ([2]; po 10 mg/kg): 46600 ng·h/mL
- Cmax ([2]; po 10 mg/kg): 2960 ng/mL
- Tmax ([2]; po 10 mg/kg): 4 h
- concentration at 24 h ([2]; po 10 mg/kg): 1260 ng/mL
- behaviour and clinical signs after dosing [3]: no clinical signs observed
- Kp at 4 h [3]: 1.57
- concentration at 4 h [3, 5]: 5610 ± 1450 ng/mL
- concentration at 4 h [3, 6]: 3580 ± 726 ng/mL

Structure (SMILES): [2H]c1c([2H])c([2H])c(-c2ccc(CC(=O)N(C)c3nc(C)c(S(N)(=O)=O)s3)cc2)c([2H])c1[2H] [Example 5, 2-([1,1′-Biphenyl]-4-yl-2′,3′,4′,5′,6′-d5)-N-methyl-N-(4-methyl-5-sulfamoyl-thiazol-2-yl)acetamide]
- IC50 (HSV-1): 1 to 50 nM
- IC50 (HSV-2): 25 to 125 nM
- IC50 (HSV-1 (ACV resistant)): 1 to 50 nM

Structure (SMILES): [2H]C([2H])([2H])Oc1cccc(-c2ccc(CC(=O)N(C)c3nc(C)c(S(N)(=O)=O)s3)cc2)c1 [Example 5/1]
- IC50 (HSV-1): 10 to 100 nM
- IC50 (HSV-2): 5 to 75 nM
- IC50 (HSV-1 (ACV resistant)): 10 to 100 nM

Structure (SMILES): [2H]C([2H])([2H])c1nc(N(C)C(=O)Cc2ccc(-c3cc(F)ccc3F)cc2)sc1S(N)(=O)=O [Example 6, 2-(2′,5′-Difluoro-[1,1′-biphenyl]-4-yl)-N-methyl-N-(4-(methyl-d3)-5-sulfamoylthiazol-2-yl)acetamide]
- IC50 (HSV-1): 2 to 60 nM
- IC50 (HSV-2): 2 to 60 nM
- IC50 (HSV-1 (ACV resistant)): 2 to 60 nM
- hydroxy metabolite peak area ratio [4]: BLQ
- behaviour and clinical signs after dosing [3]: no clinical signs observed
- Kp at 4 h [3]: 0.78
- concentration at 4 h [3, 5]: 3220 ± 1910 ng/mL
- concentration at 4 h [3, 6]: 4130 ± 1760 ng/mL

Structure (SMILES): [2H]C([2H])([2H])c1nc(N(C)C(=O)Cc2ccc(-c3cccc(F)c3)cc2F)sc1S(N)(=O)=O [Example 6/1]
- IC50 (HSV-1): 2 to 60 nM
- IC50 (HSV-2): 4 to 75 nM
- IC50 (HSV-1 (ACV resistant)): 2 to 60 nM
